The results in this text go back to publication PMC7053343, “Small molecule NSC1892 targets the CUL4A/4B-DDB1 interactions and causes impairment of CRL4^DCAF4 E3 ligases to inhibit colorectal cancer cell growth” (International Journal of Biological Sciences, 2020).

The assay addresses T1, DNA damage-binding protein 1 (DDB1) (Homo sapiens, UniProt Q16531).
T1 construct: with CUL4A
Description: AlphaScreen disruption of purified His-DDB1/GST-CUL4A interaction; in vitro Ni-NTA pulldown with recombinant proteins. In general terms: Alpha assays give light when donor and acceptor beads are brought close together.

T1 sequence (Q16531 whole entry): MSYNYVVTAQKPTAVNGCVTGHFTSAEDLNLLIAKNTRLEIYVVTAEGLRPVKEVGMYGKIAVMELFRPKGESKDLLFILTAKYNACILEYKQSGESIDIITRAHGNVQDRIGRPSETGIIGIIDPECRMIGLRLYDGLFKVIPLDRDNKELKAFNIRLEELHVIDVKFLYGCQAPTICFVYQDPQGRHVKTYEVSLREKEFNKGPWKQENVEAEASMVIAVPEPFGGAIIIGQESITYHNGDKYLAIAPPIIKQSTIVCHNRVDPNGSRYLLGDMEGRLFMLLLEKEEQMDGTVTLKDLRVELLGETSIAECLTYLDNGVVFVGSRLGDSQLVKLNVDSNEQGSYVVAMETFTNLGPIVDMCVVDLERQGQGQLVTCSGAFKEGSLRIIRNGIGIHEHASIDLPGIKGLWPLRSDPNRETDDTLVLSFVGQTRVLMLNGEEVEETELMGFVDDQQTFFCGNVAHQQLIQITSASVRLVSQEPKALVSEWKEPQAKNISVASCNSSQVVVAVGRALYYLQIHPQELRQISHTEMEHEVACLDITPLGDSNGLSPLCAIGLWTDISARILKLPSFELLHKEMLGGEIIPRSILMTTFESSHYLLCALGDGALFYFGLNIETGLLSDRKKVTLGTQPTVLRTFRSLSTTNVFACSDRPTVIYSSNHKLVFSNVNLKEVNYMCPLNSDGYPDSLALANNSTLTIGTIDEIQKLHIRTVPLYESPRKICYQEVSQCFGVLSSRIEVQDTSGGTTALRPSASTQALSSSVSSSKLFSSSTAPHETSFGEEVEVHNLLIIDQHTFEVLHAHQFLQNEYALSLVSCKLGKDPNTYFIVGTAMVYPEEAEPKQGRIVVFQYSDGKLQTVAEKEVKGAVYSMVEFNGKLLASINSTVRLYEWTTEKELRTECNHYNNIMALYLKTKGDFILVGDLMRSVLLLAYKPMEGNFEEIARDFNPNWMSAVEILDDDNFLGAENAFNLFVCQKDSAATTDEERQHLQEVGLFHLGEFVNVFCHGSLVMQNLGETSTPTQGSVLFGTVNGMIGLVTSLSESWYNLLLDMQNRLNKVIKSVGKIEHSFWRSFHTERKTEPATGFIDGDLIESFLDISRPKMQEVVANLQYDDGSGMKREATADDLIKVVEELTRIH
T1 sequence (Q13619 whole entry partner): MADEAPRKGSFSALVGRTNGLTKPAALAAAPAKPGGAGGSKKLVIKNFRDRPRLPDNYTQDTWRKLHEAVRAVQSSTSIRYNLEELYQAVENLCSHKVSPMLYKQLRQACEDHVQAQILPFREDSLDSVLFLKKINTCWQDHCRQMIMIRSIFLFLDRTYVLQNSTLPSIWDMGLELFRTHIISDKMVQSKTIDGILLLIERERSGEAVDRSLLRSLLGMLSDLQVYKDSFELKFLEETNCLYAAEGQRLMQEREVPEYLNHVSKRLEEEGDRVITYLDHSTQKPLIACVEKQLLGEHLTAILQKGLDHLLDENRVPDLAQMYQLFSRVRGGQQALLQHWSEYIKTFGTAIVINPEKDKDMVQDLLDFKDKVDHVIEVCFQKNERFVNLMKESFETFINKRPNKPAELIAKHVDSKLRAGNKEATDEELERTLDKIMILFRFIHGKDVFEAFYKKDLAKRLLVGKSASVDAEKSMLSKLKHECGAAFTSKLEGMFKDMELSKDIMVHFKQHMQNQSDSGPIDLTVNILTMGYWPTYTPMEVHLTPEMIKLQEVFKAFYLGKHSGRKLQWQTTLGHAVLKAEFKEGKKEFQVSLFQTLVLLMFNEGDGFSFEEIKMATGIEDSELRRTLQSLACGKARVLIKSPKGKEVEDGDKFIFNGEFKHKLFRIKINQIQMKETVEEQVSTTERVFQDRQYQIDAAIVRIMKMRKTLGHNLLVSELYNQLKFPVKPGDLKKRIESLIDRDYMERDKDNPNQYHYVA

With `CC(=O)O[C@@H]1c2occc2[C@@H](O)C[C@H]2[C@]3(C)CC[C@H]4C(C)(C)CCC[C@]4(C)[C@H]3C[C@@]21C` [NSC1892], the half-maximal inhibitory concentration (IC50) (usually the point on the concentration scale where inhibition reaches its midpoint) is 1800 nM.
